In BindingDB's records for doi:10.1021/acsmedchemlett.9b00354 (Bristol-Myers Squibb, 2019) one finds EC50 data, which are given here for 14 compounds.

By EC50 is commonly meant the concentration at which the effect is half-maximal.

This assay is described as follows: Effect on ZAP70 phosphorylation in human Jurkat cells pre-incubated for 30 mins followed by anti-CD3/CD28 stimulation measured after 10 mins.

In the case of `Cc1cc(NC(=O)c2nn(C3CCN(C(=O)NC(C)(C)C)CC3)c3ccccc23)ccc1NC(=O)c1cnn2ccccc12`, a half-maximal effect (EC50) was put at 42 nM. In turn, `COc1ccc2c(C(=O)Nc3ccc(NC(=O)c4nn(C5CCN(C(=O)NC(C)(C)C)CC5)c5ccc(F)cc45)cc3Cl)cnn2c1` returned an EC50 of 56 nM.

`CC(C)(C)NC(=O)N1CCC(n2nc(C(=O)Nc3ccc(NC(=O)c4cnn5ccccc45)c(Cl)c3)c3ccccc32)CC1` registered a concentration giving a half-maximal response (EC50) of 49 nM. As to `COc1ccc2c(C(=O)Nc3ccc(NC(=O)c4nn(C5CCN(C(=O)CC(C)(C)C#N)CC5)c5ccc(F)cc45)cc3Cl)cnn2c1`, the concentration giving a half-maximal response (EC50) was 41 nM. Compound `COc1ccc2c(C(=O)Nc3ccc(NC(=O)c4nn(C)c5ccccc45)cc3C)cnn2c1` gave an EC50 greater than 20000 nM. The value for `Cc1cc(=O)[nH]nc1-c1ccc(NC(=O)c2nn(C3CCN(C(=O)NC(C)(C)C)CC3)c3ccccc23)cc1Cl` was 4050 nM.

For the compound `CC(C)(C)NC(=O)N1CCC(n2nc(C(=O)Nc3ccc(NC(=O)c4cnn5ccccc45)cc3)c3ccccc32)CC1`, the EC50 worked out at 1400 nM. As for `CCc1cc(NC(=O)c2nn(C3CCN(C(=O)NC(C)(C)C)CC3)c3ccccc23)ccc1-c1n[nH]c(=O)cc1C`, the figure is 2000 nM; as for `CCc1cc(NC(=O)c2nn(C3CCN(C(=O)NC(C)(C)C)CC3)c3ccccc23)ccc1-c1n[nH]c(=O)c(C)c1C`, 420 nM. Regarding `CC(C)(C)NC(=O)N1CCC(n2nc(C(=O)Nc3ccc(-c4ccc(=O)[nH]n4)c(Cl)c3)c3ccccc32)CC1`, the concentration for a half-maximal effect (EC50) amounted to 5700 nM.

As to `COc1ccc2c(C(=O)Nc3ccc(NC(=O)c4nn(C5CCN(C(=O)NC(C)(C)C)CC5)c5ccccc45)cc3C)cnn2c1`, the concentration for a half-maximal effect (EC50) was 28 nM.

The compound `CC(C)(C)NC(=O)N1CC(Cn2nc(C(=O)Nc3ccc(-c4ccc(=O)[nH]n4)c(Cl)c3)c3ccccc32)C1` showed an EC50 of 7900 nM. In turn, `CCc1cc(NC(=O)c2nn(C3CCN(C(=O)NC(C)(C)C)CC3)c3ccccc23)ccc1-c1cc(C)c(=O)[nH]n1` had an EC50 of 2700 nM.

In the case of `Cc1cc(NC(=O)c2nn(C3CCN(C(=O)CC(C)(C)C#N)CC3)c3ccccc23)ccc1NC(=O)c1cnn2ccccc12`, the EC50 was found to be 88 nM.
